# Results reported in US20250268816A1, “EXTENDED-RELEASE FORMULATION CONTAINING CRESOL” (UNIVERSITY OF MARYLAND, BALTIMORE, priority 2022, published 2025).
# Where two headings read alike, the source gives them in different places.
# What was measured:
# [1] = ART838 release study from ISFGSs into PBS; assay type: physicochemical
# Text: ISFGS turbidity increased with time and with ART838 loading content, and all loaded ISDs […]. The diffusion of the solvents from the depot in the first week was not sufficient for ART838 to diffuse out of the ISFGS due to the hydrophobic interactions between ART838 and PLGA/PLA polymers. The ISFGS system is able to continually release ART838 for 1 month and the ISD form can be tuned to control ART838 release profiles.
# This delayed release profile might be beneficial to potentiate antitumor responses initiated by other drug agents. Therefore it is contemplated that the polymeric formulations of the ISFGS system can be altered to tune the ART838 release curve, aiming to modulate the initiation of release while maintaining the stable release observed here. In addition, the ISFGSs can be used with other dimeric ART analogs or other drug compounds, both for administration and for research purposes, for example to analyze cytotoxicity and bioeffects of the loaded ISFGSs using in vitro cell culture models.
# [2] = in mice; cited from earlier work
# [3] = Drug release study from the in situ gelling system (ISFGSs); assay type: physicochemical
# Protocol: FIG. 29 is a graph showing the results of a dexamethasone release study using 6 wt % Dex and 24 wt % Polymer 80 μL.
# FIGS. 30A and 30B are graphs showing the effect of polymer composition on the cumulative release of remdesivir from ISFGSs; 3 wt % 80 and 160 uL-24 wt %.
# FIGS. 31A and 31B are graphs showing the effect of polymer composition on the cumulative release of GS-441524 from 80 μL of ISFGSs.
# FIGS. 32A and 32B are graphs showing the effect of polymer composition on the cumulative release of GS-441524 from 160 μL of ISFGSs.
# FIG. 33A and FIG. 33B are a set of graphs showing the effect of polymer composition and solution volume on the cumulative release of artemisinin from ISFGSs.
# FIGS. 37A and 37B are graphs showing the cumulative release of gilteritinib from ISFGSs: Gilteritinib 4 wt % Release 80 μL PLGA 50/50 depots.
# [4] = system: feline infectious peritonitis (FIP); conditions: cited from earlier work
# [5] = human patients; cited from earlier work
# [6] = in vivo; cited from earlier work
# [7] = system: diabetic rats; test: Blood glucose level lowering after subcutaneous injection in diabetic rats; assay type: in vivo; conditions: subcutaneously injected insulin, 5 IU, within 4 h after the injection
# Text: The effect of subcutaneously injected insulin as the therapeutic agent component of the subject drug delivery system on diabetic rats was also studied. More specifically, the effect of an insulin depot prepared and delivered in accordance with the teachings of the subject invention on the cumulative release of insulin was studied.
# [8] = In vitro cumulative release of insulin from ISFGSs; assay type: physicochemical; conditions: for time of continuous insulin release: from ISFGSs
# Text: The effect of formulation volume in vitro was also studied.
Compound,release from the in situ gelling system (in words) [3],half-life [6] [min],time of continuous insulin release [8] [days],further results
C[C@@H]1CCC2[C@@H](C)[C@@H](CC(COP(=O)(Oc3ccccc3)Oc3ccccc3)C[C@H]3O[C@@H]4O[C@@]5(C)CCC6[C@H](C)CCC([C@H]3C)[C@]64OO5)O[C@@H]3O[C@@]4(C)CCC1[C@@]23OO4 (stereo partly drawn) [ART838],,,,time of continual ART838 release from the ISFGS system [1]: 1 month; half-life [2]: 191 min
C[C@@H]1CC[C@H]2[C@@H](C)C(=O)O[C@@H]3O[C@@]4(C)CC[C@@H]1[C@]32OO4 [artemisinin],sustained release,,,
N#C[C@@]1(c2ccc3c(N)ncnn23)O[C@H](CO)[C@@H](O)[C@H]1O [GS-441524],sustained release,,,activity against FIP in cell culture (in words) [4]: equivalent; half-life [5]: around 24 hours
CCC(CC)COC(=O)[C@H](C)N[P@](=O)(OC[C@H]1O[C@@](C#N)(c2ccc3c(N)ncnn23)[C@H](O)[C@@H]1O)Oc1ccccc1 [Remdesivir],,53.4,,
insulin,,4 to 6,7,blood glucose level [7]: about 100 mg·dL^−1
Degludec,,,7,relative insulin release rate (in words) ([8]; comparison between ISFGS formulations): slower
